Measurements: patent publication US6156493A, “Modified-affinity streptavidin” (priority 1997, dated 2000)
Like-named read-outs stand apart in the source and are kept apart here.

Key:
[1] = molecular target: Streptomyces avidinii streptavidin, wild type (WT); experiment: Known Ka of ligand-WT streptavidin partners used for the analysis; assay type: binding; settings: pH 10.0; estimated from experimentally-determined value for iminobiotin/avidin
Source text: Streptavidin, a protein produced by Streptomyces avidinii, forms a very strong and specific non-covalent complex with the water soluble vitamin biotin. […] See, Green, Adv. Prot. Chem. 29: 85-143 (1975).
Order of magnitude determinations of ΔKa for the mutants were estimated from the EC50, given the known Ka 's of some of these ligand-protein partners. […] These numbers are further supported by the independently determined biotin-binding affinities of the W79A and W120A mutants, which agree well with the ELISA estimates.

[2] = molecular target: T1, Streptomyces avidinii core streptavidin (residues 13-139), wild type (WT) (Streptomyces avidinii, UniProt P22629); experiment: ELISA concentration-dependent binding to biotin/BSA or iminobiotin/BSA; settings: ligand iminobiotin/BSA, EC50 is protein concentration, read-out: Absolute EC50 (converted)
T1 construct: core streptavidin, defined as residues 13-139 of the naturally occurring protein; made in house
Method: ELISA Assays. […] 2-Iminobiotin conjugated to bovine serum albumin (iminobiotin/BSA) was synthesized by reacting a twenty-fold molar excess of 2-iminobiotin N-hydroxysuccinimide ester (sigma) with 100 mg BSA in 100 mM NaHCO3, pH 8.3 for 12 hr at 4° C. with end-over-end stirring, followed by dialysis and gel filtration (G-25, Pharmacia) to separate iminobiotin/BSA from unreacted 2-iminobiotin. […] The next day the microwell plates were incubated with 200 μl per well of blocking buffer at pH 8.0 or pH 10.0 (50 mM sodium phosphate, pH 8.0 or 50 mM Na2 CO3, pH 10.0/100 mM NaCl/0.5% (w/v) BSA/0.05% (v/v) Tween-20) for at least 2 hr at room temperature and then incubated in ten-fold serial dilutions of 100 μg/ml WT streptavidin or mutants (100 μl/well) for 2 hr at room temperature, rinsed with blocking buffer at pH 8.0 or pH 10.0 (200 μl/well), and incubated for 1 hr at room temperature in 2×10^4 dilution of primary antistreptavidin antibodies (Sigma) in pH 8.0 or pH 10.0 blocking buffer (100 μl/well). […]
where a, b, c, and d are the adjustable fitting parameters; x=streptavidin concentration (μg/ml); y=absorbance at 405 nm. […]

[3] = molecular target: T2, Streptomyces avidinii core streptavidin variant W120A (Streptomyces avidinii, UniProt P22629, W144A); experiment: Affinity of W120A for 2-iminobiotin; assay type: binding
T2 construct: core streptavidin, defined as residues 13-139 of the naturally occurring protein; made in house

[4] = molecular target: Streptomyces avidinii core streptavidin Trp→Ala mutants (WxA: W79A, W108A, W120A); experiment: ELISA concentration-dependent binding to iminobiotin/BSA; settings: ligand iminobiotin/BSA; pH 8/10; lower bound
Method: (§1) ELISA Assays. […] 2-Iminobiotin conjugated to bovine serum albumin (iminobiotin/BSA) was synthesized by reacting a twenty-fold molar excess of 2-iminobiotin N-hydroxysuccinimide ester (sigma) with 100 mg BSA in 100 mM NaHCO3, pH 8.3 for 12 hr at 4° C. with end-over-end stirring, followed by dialysis and gel filtration (G-25, Pharmacia) to separate iminobiotin/BSA from unreacted 2-iminobiotin. […] The next day the microwell plates were incubated with 200 μl per well of blocking buffer at pH 8.0 or pH 10.0 (50 mM sodium phosphate, pH 8.0 or 50 mM Na2 CO3, pH 10.0/100 mM NaCl/0.5% (w/v) BSA/0.05% (v/v) Tween-20) for at least 2 hr at room temperature and then incubated in ten-fold serial dilutions of 100 μg/ml WT streptavidin or mutants (100 μl/well) for 2 hr at room temperature, rinsed with blocking buffer at pH 8.0 or pH 10.0 (200 μl/well), and incubated for 1 hr at room temperature in 2×10^4 dilution of primary antistreptavidin antibodies (Sigma) in pH 8.0 or pH 10.0 blocking buffer (100 μl/well). The plates were rinsed three times with 200 μl per well blocking buffer at the assay pH, incubated with secondary anti-IgG/alkaline phosphatase conjugate (Sigma) for 1 hr at room temperature, rinsed three times with blocking buffer, and assayed for alkaline phosphatase activity at pH 10.0. Every plate assayed had triplicates for each protein concentration. The data were processed on Mathcad (Mathworks) to determine the equivalent bulk concentration at 50% saturation of binding (EC50) values using a published 4-parameter nonlinear fitting algorithm shown below (Jin et al., J. Mol. Biol. 226: 851-865 (1992)):
(§2) y=a+(d-a)/[1+exp (b(c-x))]
(§3) where a, b, c, and d are the adjustable fitting parameters; x=streptavidin concentration (μg/ml); y=absorbance at 405 nm. Absolute EC50 in μg ml^-1 are given by the value of the parameter c for the best fit of the fitting function to the binding isotherm. Relative EC50 values reported in Table I are EC50 (mutant)/EC50 (WT streptavidin).

[5] = molecular target: T3, Streptomyces avidinii core streptavidin variant W120F (Streptomyces avidinii, UniProt P22629, W144F); experiment: as above; settings: Absolute EC50, ligand iminobiotin/BSA
T3 construct: core streptavidin, defined as residues 13-139 of the naturally occurring protein; made in house
Method: as §1, §2, §3

[6] = molecular target: T4, Streptomyces avidinii core streptavidin variant W108F (Streptomyces avidinii, UniProt P22629, W132F); experiment: as above; settings: for EC50: Absolute EC50, ligand iminobiotin/BSA
T4 construct: core streptavidin, defined as residues 13-139 of the naturally occurring protein; made in house
Method: as §1, §2, §3

[7] = molecular target: T5, Streptomyces avidinii core streptavidin variant W79F (Streptomyces avidinii, UniProt P22629, W103F); experiment: as above; settings: for EC50: Absolute EC50, ligand iminobiotin/BSA
T5 construct: core streptavidin, defined as residues 13-139 of the naturally occurring protein; made in house
Method: as §1, §2, §3

[8] = molecular target: T3, Streptomyces avidinii core streptavidin variant W120F; experiment: Equilibrium biotin-binding enthalpy and heat capacity (isothermal titrating calorimetry)
Method: (§4) The equilbrium binding enthalpies, ΔH°, and the heat capacities, ΔCp°, have also been […] with the streptavidin mutants (Table II). Heat capacities were determined as generally described in Murphy et al., Proteins: Structure, Function and Genetics 15:113-120 (1993), incorporated herein by reference.
(§5) The determination of ΔGr .noteq. by transition state analysis and the independent estimation of ΔG^0 from affinity measurements allows the drawing of free energy profiles for WT streptavidin and the Trp to Phe mutants. Similarly, the enthalpic energy profiles can be drawn from the equilibrium biotin-binding enthalpy (ΔH^0), independently determined by isothermal titrating calorimetry measurements, and ΔHr .noteq. available from transition state analysis of the temperature-dependent protein-ligand dissociation kinetics. The virtue of this analysis is that is allows the free energy barriers responsible for the off-rates of the different mutants to be delineated in terms of alterations in the transition state and/or the biotin-bound ground state, and further partitions these free energy changes into enthalpic and entropic components. Upon comparison with the results for WT streptavidin, the thermodynamic effects of mutating specific residues can then be mapped, providing considerable insight into the structure and energetics of the transition state.

[9] = molecular target: T2, Streptomyces avidinii core streptavidin variant W120A; experiment: as above
Method: as §4, §5

[10] = molecular target: T6, Streptomyces avidinii core streptavidin, wild type (WT) (Streptomyces avidinii, UniProt P22629); experiment: as above
T6 construct: core streptavidin, defined as residues 13-139 of the naturally occurring protein; made in house
Method: as §4, §5

[11] = molecular target: T4, Streptomyces avidinii core streptavidin variant W108F; experiment: as above
Method: as §4, §5

[12] = molecular target: T7, Streptomyces avidinii core streptavidin variant W79A (Streptomyces avidinii, UniProt P22629, W103A); experiment: as above
T7 construct: core streptavidin, defined as residues 13-139 of the naturally occurring protein; made in house
Method: as §4, §5

[13] = molecular target: T5, Streptomyces avidinii core streptavidin variant W79F; experiment: as above
Method: as §4, §5

[14] = molecular target: T3, Streptomyces avidinii core streptavidin variant W120F; settings: tight-binding limit; 0.2 nM total biotin
Method: (§6) The free ligand was then separated from the protein-bound ligand by either Microcon-30 or Centriprep-30 centrigual ultrafiltration devices (Amicon, Inc.). Typically, 0.1-1 ml of the free ligand solution or the protein-ligand mixture was added to 18 ml liquid scintillation cocktail (Ecolume, ICN Biomedicals, Inc., Costa Mesa, Calif.) and assayed on a liquid scintillation counter (Beckman Instruments, Inc., Fullerton, Calif.). The Ka was determined from a nonlinear curve fit of the fraction of protein-bound ligand versus the free protein concentration.
(§7) This assay provides a useful estimate of the Ka when the affinities lie between 10^6 -10^9.

[15] = molecular target: T6, Streptomyces avidinii core streptavidin, wild type (WT); experiment: Equilibrium binding of 3H-biotin (ultrafiltration spin-column assay); settings: tight-binding limit; 0.2 nM total biotin; isotherm identical to W120F
Method: as §6, §7

[16] = molecular target: T3, Streptomyces avidinii core streptavidin variant W120F; experiment: Streptavidin-biotin dissociation rate (3H biotin, cold biotin chase, ultrafiltration) and transition state analysis; assay type: binding
Method: (§8) Fifty μl of the filtrate were mixed with 10 ml scintillation cocktail in triplicate and assayed for radioactivity in a liquid scintillation counter (LS-7000, Beckman Instruments, Fullerton, Calif.). […] Standard deviations were determined based on three independent measurements.

[17] = molecular target: T6, Streptomyces avidinii core streptavidin, wild type (WT); experiment: as above; assay type: binding
Method: as §8

[18] = molecular target: T4, Streptomyces avidinii core streptavidin variant W108F; experiment: as above; assay type: binding
Method: as §8

[19] = molecular target: T5, Streptomyces avidinii core streptavidin variant W79F; experiment: as above; assay type: binding
Method: as §8

[20] = biotin-bound ground state relative to WT
[21] = equilibrium biotin binding enthalpy
[22] = heat capacity of biotin binding
[23] = activation barrier of biotin dissociation
[24] = activation enthalpy of biotin dissociation, transition state analysis

T3 sequence (P22629 37-163 W144F): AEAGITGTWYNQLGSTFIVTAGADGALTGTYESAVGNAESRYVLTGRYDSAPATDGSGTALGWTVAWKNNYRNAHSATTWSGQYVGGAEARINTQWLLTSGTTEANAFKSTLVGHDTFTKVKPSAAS
T5 sequence (P22629 37-163 W103F): as the sequence (P22629 37-163 W144F) above, with W67F, F108W counted along it
T6 sequence (P22629 37-163): as the sequence (P22629 37-163 W144F) above, with F108W counted along it
T4 sequence (P22629 37-163 W132F): as the sequence (P22629 37-163 W144F) above, with W96F, F108W counted along it
T2 sequence (P22629 37-163 W144A): as the sequence (P22629 37-163 W144F) above, with F108A counted along it
T1 sequence (P22629 37-163): as the sequence (P22629 37-163 W144F) above, with F108W counted along it
T7 sequence (P22629 37-163 W103A): as the sequence (P22629 37-163 W144F) above, with W67A, F108W counted along it

N=C1N[C@H]2[C@H](CS[C@H]2CCCCC(=O)O)N1 [2-iminobiotin]
Ka for iminobiotin/WT streptavidin [1]: 10^8 M^-1
EC50 ([2]; pH 8): 0.189 µM
EC50 ([2]; pH 10): 0.214 µM
affinity for 2-iminobiotin [3]: < 10^3 M^-1
Absolute EC50 [4]: ≥ 100 µg/mL
EC50 ([5]; pH 8): 42.2 µM
EC50 ([5]; pH 10): 16.6 µM
Kd [6]: 9260 to 9350 µM
EC50 ([6]; pH 8): 39.5 µM
EC50 ([6]; pH 10): 0.493 µM
Kd [7]: 9260 to 9350 µM
EC50 ([7]; pH 8): 34 µM
EC50 ([7]; pH 10): 0.575 µM

O=C(O)CCCC[C@@H]1SC[C@@H]2NC(=O)N[C@@H]21 [biotin]
TΔΔS° (entropy term) ([8]; biotin binding, relative to WT): +2.4 kcal mol^-1
ΔΔH° ([8]; biotin binding, relative to WT): +5.1 kcal mol^-1
ΔΔG° [8, 20]: +2.7 kcal mol^-1
ΔH° [8, 21]: -19.4 kcal/mol
ΔCp° [8, 22]: -303 cal/molK
ΔH° [9, 21]: -12.8 kcal/mol
ΔCp° [9, 22]: -272 cal/molK
ΔH° [10, 21]: -24.5 kcal/mol
ΔCp° [10, 22]: -345 cal/molK
ΔH° [11, 21]: -23.5 kcal/mol
ΔCp° [11, 22]: -386 cal/molK
ΔH° [12, 21]: -18.5 kcal/mol
ΔCp° [12, 22]: -357 cal/molK
TΔΔS° ([13]; biotin binding, relative to WT): -2.4 kcal/mol
ΔΔH° ([13]; biotin binding, relative to WT): -1.5 kcal/mol
ΔΔG° [13, 20]: +0.9 kcal mol^-1
ΔH° [13, 21]: -25.9 kcal/mol
ΔCp° [13, 22]: -266 cal/molK
Ka (biotin) [14]: > 10^9
Ka (biotin) [15]: > 10^9
TΔSr≠ ([16]; T = 298K, biotin dissociation): 6.6 ± 1.0 kal mol^-1
ΔGr≠ [16, 23]: 21.9 ± 1.4 kal mol^-1
ΔΔGr≠ = ΔGr≠(mutant) - ΔGr≠(WT) ([16]; biotin dissociation): -2.5 kal mol^-1
ΔGr≠ (activation barrier for biotin dissociation) [17]: 24.4 kcal/mol
TΔSr≠ ([17]; T = 298K, biotin dissociation): 7.6 ± 2.1 kal mol^-1
ΔGr≠ [17, 23]: 24.4 ± 2.4 kal mol^-1
t1/2 of biotin complex ([17]; biotin dissociation): 35 h
ΔΔGr≠ = ΔGr≠(mutant) - ΔGr≠(WT) ([17]; biotin dissociation): 0 kal mol^-1
TΔSr≠ ([18]; T = 298K, biotin dissociation): 13.8 ± 0.9 kal mol^-1
ΔGr≠ [18, 23]: 22.7 ± 1.3 kal mol^-1
ΔHr≠ [18, 24]: 36.5 ± 0.9 kcal/mol
ΔΔGr≠ = ΔGr≠(mutant) - ΔGr≠(WT) ([18]; biotin dissociation): -1.7 kal mol^-1
TΔSr≠ ([19]; T = 298K, biotin dissociation): 11.6 ± 0.6 kal mol^-1
ΔGr≠ [19, 23]: 23.3 ± 0.8 kal mol^-1
ΔHr≠ [19, 24]: 34.9 ± 0.6 kcal/mol
ΔΔGr≠ = ΔGr≠(mutant) - ΔGr≠(WT) ([19]; biotin dissociation): -1.1 kal mol^-1
